Entries after “also recorded” stand apart in the source; their conditions may differ. Like-named read-outs stand apart in the source and are kept apart here.
Assays:
sham-feeding rat [1] = experiment: Sucrose ingestion (sham intake) in the sham-feeding rat; type: in vivo; conditions: 20% sucrose, 30-min test, N=6; for effect on volume of sucrose solution ingested (in words): (+)-SKF 10,047 5 mg/kg i.p., BMY 14802 4 mg/kg i.p., haloperidol 0.1 mg/kg i.p.
Excerpt: As a non-limiting example, distinguishing between sigma receptor modulation and dopamine modulation may be accomplished using a D2 distinguishing assay, such as a behavioral assay system which discriminates the effects of dopamine D2 antagonists from sigma modulators or agents. A non-limiting example of a D2 /sigma distinguishing assay system involves quantification of ingestion of sucrose in a sham-feeding rat, where dopamine plays a critical role in the mediation of this behavior. See Schneider, L. H. et al. Eur. J. Pharmacol. 186:61-70 (1990) which is entirely incorporated herein by reference. […] The principal factor which compels the animal to maintain ingestion is the sweet taste of the sucrose solution; the involvement of the ascending mesolimbic dopamine system in this effect appears to be manifested as a modulation of the hedonic potency of the orosensory event (sweet taste). […] Neurosci. Abstr. 16:1028 (1990) which references are incorporated entirely herein by reference.
Differentiation of sigma and dopamine activities are provided by a behavioral assay system which effectively discriminates the effects of dopamine D-2 antagonists from sigma agents. The assay system involves quantification of ingestion of sucrose in the sham-feeding rat.

sham-feeding rat [2] = experiment: Microstructural analysis of licking/ingestive behavior in the sham-feeding rat; type: in vivo; conditions: SKF 5 mg/kg, BMY 4 mg/kg, HAL 0.1 mg/kg, i.p.; for interlick intervals (in words): range 0-250 msec
Excerpt: Motoric components of the ingestive behavior may be differentiated from the "rewarding", sensory components by the use of microstructural analysis, a computer-controlled device which records the time at which each animal licks, to the nearest fractional millisecond. Analysis of licking and ingestive behavior in bursts is monitored through a fixed time test such that sigma agents may influence ingestive behavior either through the motor output systems or through nigrostriatal dopamine systems. The role for sigma sites in motor output systems include those muscles which are associated with licking, biting, and swallowing.
This consists of the use of a computer-controlled device which records the time at which each animal licks, to the nearest fractional millisecond. This then allows analysis of licking and ingestive behavior in bursts through a 30-minute test.
Using this behavioral assay system, with peripheral administration of the various selective drugs, rats (N=6) received 20% sucrose during a 30-min test, such that there was no effect of the sigma agents (+)-SKF 10,047 (5 mg/kg, i.p.; SKF) or BMY 14802 (4 mg/kg, i.p.; BMY) depending upon the volume of the sucrose solution which was ingested. […] These changes are attributed to a shift in the mean of the distribution histogram of interlick intervals. […] The shift in interlick interval distribution is expected to arise from occupancy of hindbrain sigma sites, possibly in the reticular formation, which are involved in definition of the lick rate in the rat.

sigma receptor = conditions: cited from earlier work
[3] = test system: sigma versus dopamine D2 receptors; conditions: cited from earlier work
sigma receptors [4] = experiment: Sigma binding assay, (3H)-haloperidol, bovine cerebellar homogenates; conditions: bovine cerebellar preparation
Description: (§1) As a non-limiting subexample, a sigma binding assay can use cerebellar tissue extracts to bind sigma receptor selectively by (^3 H)-halopendol with spiperone used to inhibit-binding to D2 receptors. […] These ligands are incubated at 30° C. with tissue (rat liver, rat cerebellum) homogenates for a 45 min period. In these assays, tissue concentrations used a range from 0.1-0.5 mg protein/mL, and radioligand concentrations range from 50 pM-10 μM. […] Filters are dried and counted for (^3 H)-activity in a liquid scintillation counter. The amount of ligand bound to the tissue receptor is measured with the aid of computer analysis of the data, using the LIGAND or an equivalent algorithm.
(§2) Radioligand binding assays were performed on the tricyclic (cis-cis) hexahydrojulolidine (HHJ), the parent tetracyclic (cis,cis) OHNQ (I-1) and 9-methoxy OHNQ (I-4), for binding to D2 and sigma receptors synthesized according to Example 1. The D2 assays were performed on bovine striatal homogenates using 0.50 nM (^3 H)-spiperone in the presence of 250 μM ketanserin (to inhibit association with some 5-HT receptors and spirodecanone sites), with non-specific binding defined using 10 μM sulpiride according to known methods. The sigma binding assay was performed on bovine and rat cerebellar homogenates using 2.0 nM (^3 H)-haloperidol in the presence of 25 nM spiperone (to inhibit association with D2 dopamine receptors); non-specific binding was defined in the presence of 1 μM unlabeled haloperidol. […] Sigma receptor assays on rat brain preparations using (^3 H)-DTG and (^3 H)-Pentazocine as the radiolabels are performed with good results. […]
(§3) Ten to twenty point assays are performed in triplicate using either 4 nM (^3 H)-haloperidol, 4 nM (^3 H)-DTG or 0.4 nM (^3 H)-DTG (New England Nuclear) as radiolabels, on rat liver, rat cerebellar or bovine cerebellar homogenates. […] Radioactivity is counted the following day at 40% efficiency.

sigma receptors [5] = experiment: Sigma binding assay, (3H)-haloperidol, rat cerebellar homogenates; conditions: for binding to sigma sites (in words): rat cerebellar preparation
Description: as §1
(§4) Radioligand binding assays were performed on the tricyclic (cis-cis) hexahydrojulolidine (HHJ), the parent tetracyclic (cis,cis) OHNQ (I-1) and 9-methoxy OHNQ (I-4), for binding to D2 and sigma receptors synthesized according to Example 1. The D2 assays were performed on bovine striatal homogenates using 0.50 nM (^3 H)-spiperone in the presence of 250 μM ketanserin (to inhibit association with some 5-HT receptors and spirodecanone sites), with non-specific binding defined using 10 μM sulpiride according to known methods. The sigma binding assay was performed on bovine and rat cerebellar homogenates using 2.0 nM (^3 H)-haloperidol in the presence of 25 nM spiperone (to inhibit association with D2 dopamine receptors); non-specific binding was defined in the presence of 1 μM unlabeled haloperidol. […] Sigma receptor assays on rat brain preparations using (^3 H)-DTG and (^3 H)-Pentazocine as the radiolabels are performed with good results. […] Additional assays have been performed for D-1 activity (using (^3 H)-SCH23390), and for α-1 and α-2 activity as well as several 5-HT subtypes (5-HT-1-a, 5-HT-3, 5-HT uptake site).
Crude tissue homogenates are prepared by the following general procedure. Frozen tissue is thawed and homogenized in a buffer containing 50 mM Tris-HCI, 120 mM NaCl, 1 mM MgCl2, and 5 mM KCl, pH 8.0. This tissue suspension is sedimented at 100,000×g for a 30 min. period. Following centrifugation, the supernatant is discarded and the resultant pellet is resuspended in the same buffer solution, and respun as previously described.
Ten to twenty point assays are performed in triplicate using either 4 nM (^3 H)-haloperidol, 4 nM (^3 H)-DTG or 0.4 nM (^3 H)-DTG (New England Nuclear) as radiolabels, on rat liver, rat cerebellar or bovine cerebellar homogenates. The concentration of the displacing agent generally ranges between 0.2 nM and 64 μM in a final volume of 2 mL. Non-specific binding is defined by the presence of 1 μM unlabeled haloperidol. Spiperone at a concentration of 25 nM is added in the assays performed with (^3 H)-haloperidol in order to block D2 receptor sites. The buffer system employed is as in the tissue preparation as presented herein. Incubation is carried out for one hour at room temperature after addition of the tissue. Samples are rapidly filtered through Schleicher and Schuell #32 glass filters presoaked with 0.1% polyethyleneimine, on a 24-position cell harvester (Brandel). The filters are washed with ice-cold 10 mM Tris buffer, pH 7.7, and then placed in 2 mL of scintillation fluid. Radioactivity is counted the following day at 40% efficiency.

PCP site = conditions: cited from earlier work
D2 receptor = experiment: Dopamine D2 binding assay, (3H)-spiperone, bovine striatal homogenates
Description: as §4

5-HT-2 receptor = 5-HT-2 receptor activity assay; type: binding
drug-resistant patients = conditions: human, in vivo; cited from earlier work
dopamine D2 receptor = conditions: cited from earlier work
sigma receptors [6] = experiment: Sigma receptor binding, rat liver preparations
Description: as §1, §2, §3

[7] = solubilized rat liver preparations

## C=CCN1CCC2(C)c3cc(O)ccc3CC1C2C (single isomer, unassigned; (+)) [(+)-SKF 10,047]
sham-feeding rat [1]
  effect on volume of sucrose solution ingested (in words): no effect
sham-feeding rat [2]
  mean lick cluster size (in words): not SKF or HAL
  interlick intervals (in words): not SKF or HAL
Sigma receptor; (+)-NANM versus (-)-NANM
  enantioselectivity for sigma sites (in words): more potent than (-)-NANM

## CCCN1CCCC(c2cccc(O)c2)C1 (stereo not drawn) [3-PPP]
[3]
  affinity for sigma versus dopaminergic receptors (in words): higher affinity for sigma receptor sites than for dopaminergic receptors

## COc1ccc2c(c1)C1CCCN3CCCC(C2)C13 (stereo not drawn) [11-methoxy OHNQ]
Sigma receptors [4]
  binding to sigma sites (in words): weak sigma binding
Sigma receptors [4]; 2.0 nM (3H)-haloperidol, 25 nM spiperone
  IC50: 1500 nM
Sigma receptors [5]; rat cerebellar membranes
  sigma potency compared with reference compounds (in words): on the order of that observed for (+)-NaMM, (+)-3-PPP, as well as cis-fused tricyclic octahydrobenzo-(f) quinolines with hydroxyl groups on the aromatic ring
Sigma receptors [5]; rat cerebellar membranes, 2.0 nM (3H)-haloperidol, 25 nM spiperone
  IC50: 300 nM
Sigma receptors [5]
  binding to sigma sites (in words): considerably stronger binding
Sigma receptors [5]; rat cerebellar vs bovine cerebellar receptors
  sigma binding, rat versus bovine (in words): bound more specifically and with a higher affinity to rat cerebellar sigma receptors, than to bovine cerebellar receptors

## CCCN1CCC[C@H](c2cccc(O)c2)C1 [(+)-(^3 H)-3-PPP, (+)-(^3 H)-3-(+)-3-(3-hydroxyphenyl) N-(1-propyl)piperidine]
Sigma receptor
  affinity for sigma receptors (in words): labeled with high affinity

## C=CCN1CCC2(C)c3cc(O)ccc3CC1C2C (stereo not drawn) [(^3 H)-NANM, N-allylnormetazocine]
Sigma receptor
  affinity for sigma receptors (in words): high affinity
PCP site
  affinity toward PCP sites (in words): low affinity

## c1ccc(C2(N3CCCCC3)CCCCC2)cc1 [(^3 H)-PCP, phencyclidine]
Sigma receptor
  affinity for sigma receptors (in words): not labeled

## c1csc(C2(N3CCCCC3)CCCCC2)c1 [(^3 H)-TCP, (^3 H)-1-((2-thienyl)cyclohexyl)piperidine]
Sigma receptor
  affinity for sigma receptors (in words): not labeled

## COc1ccc2c(c1)C1CCCN3CCCC(C2)C13 (stereo not drawn) [(trans,trans) 11-methoxy OHNQ]
D2 receptor
  activity at D-2 receptor sites (in words): modest but selective activity
5-HT-2 receptor
  activity at 5-HT-2 receptor sites (in words): modest but selective activity

## Cl.N#Cc1cccnc1N1CCN(CCCCN2C(=O)SC3(CCCC3)C2=O)CC1 [BMY 13980]
Sigma receptor
  affinity for sigma receptors (in words): moderate to high affinity

## OC(CCCN1CCN(c2ncc(F)cn2)CC1)c1ccc(F)cc1 (stereo not drawn) [BMY 14802]
sham-feeding rat [1]
  effect on volume of sucrose solution ingested (in words): no effect
sham-feeding rat [2]
  mean lick cluster size (in words): smaller mean lick cluster size
  interlick intervals (in words): significant decrease of interlick intervals
Sigma receptor
  affinity for sigma receptors (in words): moderate to high affinity
PCP site
  affinity toward PCP sites (in words): little or no affinity
[3]
  selectivity for sigma versus dopamine D2 receptors: 10 to 15 fold

## C1CC2CCCN3CCCC(C1)C23 (stereo not drawn) [HHJ, hexahydrojulolidine]
Sigma receptors [4]
  binding to sigma sites (in words): did not exhibit binding
Sigma receptors [5]
  binding to sigma sites (in words): did not exhibit binding

## Cl.Fc1ccc2[nH]c3c(c2c1)CN(CCCc1cccnc1)CC3 [WY 47,384]
Sigma receptor
  affinity for sigma receptors (in words): moderate to high affinity

## O=C1CC2(CCCC2)CC(=O)N1CCCCN1CCN(c2ncccn2)CC1 [buspirone]
Sigma receptor
  affinity for sigma receptors (in words): high affinity

## CN1CCN(C2=Nc3cc(Cl)ccc3Nc3ccccc32)CC1 [clozapine]
drug-resistant patients
  agranulocytosis / side effects (in words): irreversible, potentially fatal agranulocytosis in a minority of patients; also recorded: less motor side effects; also recorded: severe and fatal agranulocytosis

## O=C(CCCN1CCC(O)(c2ccc(Cl)cc2)CC1)c1ccc(F)cc1 [haloperidol]
sham-feeding rat [1]
  effect on volume of sucrose solution ingested (in words): highly significant reduction
sham-feeding rat [1]; haloperidol 0.1 mg/kg, i.p., vs 33.7±2.7 ml, p<0.001
  sham intake of the sucrose solution: 15 ± 2.7 mL
sham-feeding rat [2]
  mean lick cluster size (in words): not SKF or HAL
  interlick intervals (in words): not SKF or HAL
Sigma receptor
  affinity for sigma receptors (in words): high affinity
Sigma receptor; listed as (^3 H)-haloperidol
  affinity for sigma receptors (in words): labeled with high affinity
Sigma receptor; listed as Haloperidol
  affinity for sigma receptors (in words): very high affinity
Dopamine D2 receptor
  activity at dopamine D2 receptor (in words): high affinity

## C=CCN1CC[C@]23c4c5ccc(O)c4O[C@H]2C(=O)CC[C@@]3(O)[C@H]1C5 [naloxone]
Sigma receptor; typical opiate receptor antagonists
  block of (3H)-NANM binding (in words): not blocked

## CCN1CCC[C@H]1CNC(=O)c1c(OC)ccc(Br)c1OC [remoxipride]
Sigma receptor
  affinity for sigma receptors (in words): moderate to high affinity
PCP site
  affinity toward PCP sites (in words): little or no affinity

## C[C@@H]1CN(CCCn2c3ccccc3c3ccccc32)C[C@H](C)N1 [rimcazole]
Sigma receptor
  affinity for sigma receptors (in words): moderate to high affinity
PCP site
  affinity toward PCP sites (in words): little or no affinity
[3]
  selectivity for sigma versus dopamine D2 receptors: 10 to 15 fold

## O=C(CCCN1CCC2(CC1)C(=O)NCN2c1ccccc1)c1ccc(F)cc1 [spiperone]
Sigma receptor
  affinity for sigma receptors (in words): not spiperone

## O=C1CC2(CCCC2)CC(=O)N1CCCCN1CCN(c2nsc3ccccc23)CC1 [tiospirone]
Sigma receptor
  affinity for sigma receptors (in words): moderate to high affinity

## c1ccc2c(c1)CC1CCCN3CCCC2C13 (stereo not drawn) [unsubstituted (trans,trans) OHNQ]
Sigma receptors [6]; crude liver homogenates
  IC50: 157 nM
Sigma receptors [6]; [7]
  IC50: 87 nM
  affinity to sigma receptors (in words): high affinity
D2 receptor
  activity at D-2 receptor sites (in words): modest but selective activity
5-HT-2 receptor
  activity at 5-HT-2 receptor sites (in words): modest but selective activity

From US5298509A, “Octahydronaphthoquinolizines, and methods of making and using thereof” (priority 1992, dated 1994)
